The values that follow come from the NIST ThermoML archive (doi:10.1016/j.jct.2016.02.026).

The conditions of series [1]: Liquid; for mass density: 303.15 K, 91.2 kPa, Vibrating tube method; for vapor or sublimation pressure: Ebulliometric method (Recirculating still).
Series [2] can be described thus: wn = mass fraction of the nth substance listed. As to conditions: 303.15 K, 91.2 kPa, Liquid, Vibrating tube method.

As a reminder, the mass density is mass per unit of volume. For orientation: vapor or sublimation pressure means the pressure of vapour in equilibrium with the condensed phase.

± gives the expanded uncertainty stated by the source.

As to `CCO` [ethanol], the mass density in series [1] was found to be 781 ± 2 kg/m3.

Turning to `CCO` [ethanol] + OCC(O)CO, in series [2] (w2 = 0), the mass density is given as 781 ± 2 kg/m3.

Turning to `CCO` [ethanol] + [Cl-].[Na+], the mass density in series [2] (w2 = 0) stood at 781 ± 2 kg/m3.

Take `OCC(O)CO` [glycerol]: the mass density in series [1] is 1255 ± 3 kg/m3.

With `OCC(O)CO` [glycerol] + CCO, the mass density in series [2] (w1 = 0.1529) was determined as 835 ± 2 kg/m3; in series [2] (w1 = 0.2901), 888 ± 2 kg/m3; in series [2] (w1 = 0.4124), 939 ± 2 kg/m3; in series [2] (w1 = 0.5159) it was 985 ± 2 kg/m3; in series [2] (w1 = 0.6211), 1036 ± 2 kg/m3; in series [2] (w1 = 0.7096) it was 1084 ± 2 kg/m3. Further, the mass density in series [2] (w1 = 0.7971) was 1136 ± 2 kg/m3; in series [2] (w1 = 0.869), 1174 ± 3 kg/m3; in series [2] (w1 = 0.9357) it was 1215 ± 3 kg/m3; in series [2] (w1 = 1) it was 1255 ± 3 kg/m3.

`OCC(O)CO` [glycerol] + O: the mass density in series [2] (w1 = 0.1159) amounted to 1022 ± 2 kg/m3; in series [2] (w1 = 0.2056), 1044 ± 2 kg/m3; in series [2] (w1 = 0.3521), 1080 ± 2 kg/m3; in series [2] (w1 = 0.4646), 1108 ± 2 kg/m3; in series [2] (w1 = 0.5524) it was 1133 ± 2 kg/m3; in series [2] (w1 = 1), 1255 ± 3 kg/m3.

For `[Cl-].[K+]` [potassium chloride] + O, the mass density in series [2] (w1 = 0.0344) came out at 1017 ± 2 kg/m3; in series [2] (w1 = 0.053) it was 1029 ± 2 kg/m3; in series [2] (w1 = 0.067), 1038 ± 2 kg/m3; in series [2] (w1 = 0.0975), 1058 ± 2 kg/m3; in series [2] (w1 = 0.1259) it was 1077 ± 2 kg/m3; in series [2] (w1 = 0.1526), 1095 ± 2 kg/m3. In addition, the mass density in series [2] (w1 = 0.1779) was 1113 ± 2 kg/m3; in series [2] (w1 = 0.2009), 1129 ± 2 kg/m3; in series [2] (w1 = 0.2117), 1137 ± 3 kg/m3; in series [2] (w1 = 0.2156), 1140 ± 2 kg/m3; in series [2] (w1 = 0.2448), 1161 ± 3 kg/m3; in series [2] (w1 = 0.2645), 1176 ± 3 kg/m3.

In the case of `[Cl-].[Na+]` [sodium chloride] + CCO, in series [2] (w1 = 0.00041), the mass density worked out at 788 ± 2 kg/m3.

As for `[Cl-].[Na+]` [sodium chloride] + O, the mass density in series [2] (w1 = 0.0318) amounted to 1018 ± 2 kg/m3; in series [2] (w1 = 0.0654), 1042 ± 2 kg/m3; in series [2] (w1 = 0.067), 1043 ± 2 kg/m3; in series [2] (w1 = 0.0949), 1063 ± 2 kg/m3; in series [2] (w1 = 0.0974), 1065 ± 2 kg/m3; in series [2] (w1 = 0.1232) it was 1084 ± 2 kg/m3. Besides, the mass density in series [2] (w1 = 0.1259) worked out at 1086 ± 2 kg/m3; in series [2] (w1 = 0.1578), 1110 ± 2 kg/m3; in series [2] (w1 = 0.1772), 1125 ± 2 kg/m3; in series [2] (w1 = 0.2013), 1144 ± 3 kg/m3; in series [2] (w1 = 0.225), 1163 ± 3 kg/m3; in series [2] (w1 = 0.244), 1178 ± 3 kg/m3. Besides, the mass density in series [2] (w1 = 0.2672) amounted to 1195 ± 3 kg/m3.

`O` [water]: in series [1], the mass density worked out at 996 ± 2 kg/m3. Further, the “vapor or sublimation pressure” value is 15.32 ± 0.9 kPa in series [1] (327.65 K); 23.61 ± 0.97 kPa in series [1] (337.15 K); 28.46 ± 1.4 kPa in series [1] (341.35 K); 33.81 ± 1.5 kPa in series [1] (344.45 K); 38.36 ± 1.5 kPa in series [1] (348.05 K); 44.42 ± 1.9 kPa in series [1] (351.55 K). For the same compound, the “vapor or sublimation pressure” value in series [1] (355.75 K) is 52.9 ± 1.9 kPa; in series [1] (358.05 K), 56.84 ± 2.4 kPa; in series [1] (361.85 K), 67.25 ± 2.7 kPa; in series [1] (365.65 K) it was 77.55 ± 3 kPa; in series [1] (370.05 K) it was 91.59 ± 3.2 kPa.

In the case of `O` [water] + OCC(O)CO, the mass density in series [2] (w2 = 0) is 996 ± 2 kg/m3.

Take `O` [water] + [Cl-].[K+]: in series [2] (w2 = 0), the mass density is reported as 996 ± 2 kg/m3.

For the compound `O` [water] + [Cl-].[Na+], in series [2] (w2 = 0), the mass density stood at 996 ± 2 kg/m3.
